From US9321756B2, “Azole compounds as PIM inhibitors” (priority 2011, dated 2016)
Read-outs that look alike come from different tables or passages of the source.

Key:
[1] = molecular target: full length recombinant Pim-3 (Homo sapiens (Human), UniProt Q86V86); assay: Pim enzyme assay (HTRF, phosphorylation of biotinylated-BAD (S112) peptide), Pim-3; assay type: biochemical; settings: Pim-3 enzyme assay; read-out: Pim3 IC50
Method in brief: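 IC50 values were fitted with a 4-parameter logistic model to percent-of-control HTRF signal (Eu anti-phospho-BAD S112 antibody/streptavidin-APC). Reactions used full-length Pim-3 and biotin-BAD (S112) peptide, ran 1 h 30 min at RT (22 °C) in Hepes pH 7.0 buffer with BSA and DTT, and were stopped by 3 mM EDTA.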

[2] = system: Pim-1 stably transfected U2OS human osteogenic sarcoma line; assay: Pim cell assay U2OS (phospho-BAD normalized against total BAD), Pim-1 transfected; assay type: cell-based; settings: Homo sapiens, U2OS
[3] = molecular target: full length recombinant Pim-1 (Homo sapiens (Human), UniProt P11309); assay: Pim enzyme assay (HTRF, phosphorylation of biotinylated-BAD (S112) peptide), Pim-1; assay type: biochemical
Sequence of full length recombinant Pim-1 (P11309 whole entry): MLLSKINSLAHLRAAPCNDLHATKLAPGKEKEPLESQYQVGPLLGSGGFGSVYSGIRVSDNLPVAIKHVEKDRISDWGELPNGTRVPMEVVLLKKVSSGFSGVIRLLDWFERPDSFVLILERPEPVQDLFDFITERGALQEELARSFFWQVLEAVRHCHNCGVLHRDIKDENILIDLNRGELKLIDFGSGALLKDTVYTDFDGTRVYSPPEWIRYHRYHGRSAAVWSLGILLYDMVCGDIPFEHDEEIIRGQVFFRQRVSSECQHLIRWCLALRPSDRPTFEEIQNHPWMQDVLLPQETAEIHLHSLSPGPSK

[4] = molecular target: full length recombinant Pim-2 (Homo sapiens (Human), UniProt Q9P1W9); assay: Pim enzyme assay (HTRF, phosphorylation of biotinylated-BAD (S112) peptide), Pim-2; assay type: biochemical; settings: Pim-2 enzyme assay; read-out: Pim2_IC50
Sequence of full length recombinant Pim-2 (Q9P1W9 whole entry): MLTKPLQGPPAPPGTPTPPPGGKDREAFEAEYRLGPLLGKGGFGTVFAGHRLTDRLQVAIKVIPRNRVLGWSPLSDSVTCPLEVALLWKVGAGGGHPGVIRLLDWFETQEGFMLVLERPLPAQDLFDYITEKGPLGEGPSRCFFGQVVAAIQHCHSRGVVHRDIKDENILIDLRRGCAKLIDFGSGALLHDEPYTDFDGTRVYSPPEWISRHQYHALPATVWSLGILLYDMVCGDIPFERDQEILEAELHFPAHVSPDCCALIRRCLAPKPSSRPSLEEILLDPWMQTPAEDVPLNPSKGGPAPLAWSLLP

[5] = system: Pim-2 stably transfected U2OS human osteogenic sarcoma line; assay: Pim cell assay U2OS (phospho-BAD normalized against total BAD), Pim-2 transfected; assay type: cell-based; settings: Homo sapiens, read-out: U2OS Pim2_Cell_IC50
[6] = read-out: U2OS Pim1_Cell_IC50, U2OS cells, Pim-1 transfected
[7] = Pim-1 enzyme assay, read-out: Pim_1_IC50

Row | IC50 [1] | IC50 [3] | IC50 [4] | IC50 [3, 7] | SMILES | IC50 ([2]; read-out: U2OS Pim1_Cell_IC50) | IC50 ([5]; U2OS cells, Pim-2 transfected) | IC50 [2, 6] | IC50 ([3]; read-out: Pim_1_IC50) | IC50 ([5]; U2OS)
1 | 1.7 nM | 1.77 nM | 9.74 nM | – | CC1CCCCN1c1cncc(-c2c[nH]c3ccc(-c4nnc(N)s4)cc23)n1 (stereo not drawn) [Example 153, 5-(3-(6-(2-methyl-1-piperidinyl)-2-pyrazinyl)-1H-indol-5-yl)-1,3,4-thiadiazol-2-amine] | 51.9 nM | 1660 nM | – | – | –
2 | 1.45 nM | – | 20 nM | 2 nM | CCN(CC)c1cncc(-c2c[nH]c3ccc(-c4nnc(N)s4)cc23)n1 [Example 154, 6-(5-(5-amino-1,3,4-thiadiazol-2-yl)-1H-indol-3-yl)-N,N-diethyl-2-pyrazinamine] | – | 2300 nM | 43.4 nM | – | –
3 | 0.425 nM | – | 2.25 nM | 4.42 nM | Cc1cn(-c2cccc(-c3c[nH]c4ccc(-c5nnc(N)s5)cc34)n2)cn1 [Example 155, 5-(3-(6-(4-methyl-1H-imidazol-1-yl)-2-pyridinyl)-1H-indol-5-yl)-1,3-4-thiadiazol-2-amine] | – | > 31600 nM | 259 nM | – | –
4 | 4.38 nM | – | 12.3 nM | 5.59 nM | Nc1nnc(-c2ccc3[nH]cc(-c4cncc(N5CCOCC5)n4)c3c2)s1 [Example 156, 5-(3-(6-(4-morpholinyl)-2-pyrazinyl)-1H-indol-5-yl)-1,3,4-thiadiazol-2-amine] | – | 1900 nM | 163 nM | – | –
5 | 3.86 nM | – | 28.2 nM | 8.18 nM | CN(C)c1cncc(-c2c[nH]c3ccc(-c4nnc(N)s4)cc23)n1 [Example 158, 6-(5-(5-amino-1,3,4-thiadiazol-2-yl)-1H-indol-3-yl)-N,N-dimethyl-2-pyrazinamine] | – | 3040 nM | 133 nM | – | –
6 | 10.7 nM | – | 24.6 nM | 10.5 nM | Nc1nnc(-c2ccc3[nH]cc(-c4cncc(OC5CCCC5)n4)c3c2)s1 [Example 160, 5-(3-(6-(cyclopentyloxy)-2-pyrazinyl)-1H-indol-5-yl)-1,3,4-thiadiazol-2-amine] | – | 6540 nM | 176 nM | – | –
7 | 8.54 nM | – | 49.4 nM | 12.7 nM | CC1CCN(c2cncc(-c3c[nH]c4ccc(-c5nnc(N)s5)cc34)n2)CC1 [Example 162, 5-(3-(6-(4-methyl-1-piperidinyl)-2-pyrazinyl)-1H-indol-5-yl)-1,3,4-thiadiazol-2-amine] | 214 nM | 5680 nM | – | – | –
8 | 3.25 nM | – | 21.6 nM | 14.7 nM | CCOc1cccc(-c2c[nH]c3ccc(-c4nnc(N)s4)cc23)n1 [Example 164, 5-(3-(6-ethoxy-2-pyridinyl)-1H-indol-5-yl)-1,3,4-thiadiazol-2-amine] | 141 nM | 3730 nM | – | – | –
9 | 5.73 nM | – | 35.3 nM | 15.2 nM | CCCOc1cccc(-c2c[nH]c3ccc(-c4nnc(N)s4)cc23)n1 [Example 165, 5-(3-(6-propoxy-2-pyridinyl)-1H-indol-5-yl)-1,3,4-thiadiazol-2-amine] | 231 nM | 4230 nM | – | – | –
10 | 6.34 nM | – | 44.1 nM | 23.2 nM | COc1ccc(-c2c[nH]c3ccc(-c4nnc(N)s4)cc23)nc1OC [Example 168, 5-(3-(5,6-dimethoxy-2-pyridinyl)-1H-indol-5-yl)-1,3,4-thiadiazol-2-amine] | 111 nM | > 3160 nM | – | – | –
11 | 11.8 nM | – | 23.8 nM | 26.4 nM | Cc1nccn1-c1cccc(-c2c[nH]c3ccc(-c4nnc(N)s4)cc23)n1 [Example 169, 5-(3-(6-(2-methyl-1H-imidazol-1-yl)-2-pyridinyl)-1H-indol-5-yl)-1,3,4-thiadiazol-2-amine] | – | > 31600 nM | 1810 nM | – | –
12 | 9.47 nM | – | 100 nM | 34.8 nM | Cc1cn(-c2nc(-c3c[nH]c4ccc(-c5nnc(N)s5)cc34)cs2)cn1 [Example 170, 5-(3-(2-(4-methyl-1H-imidazol-1-yl)-1,3-thiazol-4-yl)-1H-indol-5-yl)-1,3,4-thiadiazol-2-amine] | 876 nM | > 31600 nM | – | – | –
13 | 13.9 nM | – | 58.3 nM | 36.6 nM | Nc1nnc(-c2ccc3[nH]cc(-c4ccc5cn[nH]c5c4)c3c2)s1 [Example 171, 5-(3-(1H-indazol-6-yl)-1H-indol-5-yl)-1,3,4-thiadiazol-2-amine] | – | > 31600 nM | 2660 nM | – | –
14 | 30.5 nM | – | 91.2 nM | 45.8 nM | Nc1nnc(-c2ccc3[nH]cc(-c4csc(-n5ccccc5=O)n4)c3c2)s1 [Example 177, 1-(4-(5-(5-amino-1,3,4-thiadiazol-2-yl)-1H-indol-3-yl)-1,3-thiazol-2-yl)-2(1H)-pyridinone] | 538 nM | > 31600 nM | – | – | –
15 | 24.1 nM | – | 64.6 nM | 77 nM | Cc1ccn(-c2cccc(-c3c[nH]c4ccc(-c5nnc(N)s5)cc34)n2)n1 [Example 179, 5-(3-(6-(3-methyl-1H-pyrazol-1-yl)-2-pyridinyl)-1H-indol-5-yl)-1,3,4-thiadiazol-2-amine] | 816 nM | > 31600 nM | – | – | –
16 | 26.6 nM | – | 49.5 nM | 82.1 nM | Nc1nnc(-c2ccc3[nH]cc(-c4cccc(-n5cccn5)n4)c3c2)s1 [Example 180, 5-(3-(6-(1H-pyrazol-1-yl)-2-pyridinyl)-1H-indol-5-yl)-1,3,4-thiadiazol-2-amine] | 926 nM | 5460 nM | – | – | –
17 | 2.79 nM | – | 10.9 nM | 2.51 nM | Nc1nnc(-c2ccc3[nH]cc(-c4cncc(N5CCCCC5)n4)c3c2)s1 [Example 198, 5-(3-(6-(1-piperidinyl)-2-pyrazinyl)-1H-indol-5-yl)-1,3,4-thiadiazol-2-amine] | – | 1720 nM | 36.9 nM | – | –
18 | 2.17 nM | – | 30.1 nM | 15.4 nM | COc1cc(-c2c[nH]c3ccc(-c4nnc(N)s4)cc23)nc(OC(C)C)n1 [Example 200, 5-(3-(6-methoxy-2-(1-methylethoxy)-4-pyrimidinyl)-1H-indol-5-yl)-1,3,4-thiadiazol-2-amine] | 112 nM | 3800 nM | – | – | –
19 | 4.93 nM | – | 32.4 nM | 17.9 nM | CC1(C)CNc2ncc(-c3c[nH]c4ccc(-c5nnc(N)s5)cc34)nc21 [Example 201, 5-(3-(7,7-dimethyl-6,7-dihydro-5H-pyrrolo[2,3-b]pyrazin-2-yl)-1H-indol-5-yl)-1,3,4-thiadiazol-2-amine] | 387 nM | 3830 nM | – | – | –
20 | 11.1 nM | 73.2 nM | 87.5 nM | – | COc1cc(-c2c[nH]c3ccc(-c4nnc(N)s4)cc23)nc(OC)n1 [Example 202, 5-(3-(2,6-dimethoxy-4-pyrimidinyl)-1H-indol-5-yl)-1,3,4-thiadiazol-2-amine] | 238 nM | – | – | – | > 31600 nM
21 | 5.42 nM | – | 37.2 nM | 20.9 nM | CC(C)Nc1cccc(-c2c[nH]c3ccc(-c4nnc(N)s4)cc23)n1 [Example 203, 6-(5-(5-amino-1,3,4-thiadiazol-2-yl)-1H-indol-3-yl)-N-(1-methylethyl)-2-pyridinamine] | – | 2190 nM | 384 nM | – | –
22 | 18.2 nM | – | 145 nM | 82.9 nM | Nc1nnc(-c2ccc3[nH]cc(-c4cccc(NCC5CC5)n4)c3c2)s1 [Example 204, 6-(5-(5-amino-1,3,4-thiadiazol-2-yl)-1H-indol-3-yl)-N-(cyclopropylmethyl)-2-pyridinamine] | 466 nM | 7720 nM | – | – | –
23 | 1.68 nM | – | 7.71 nM | 1.77 nM | Nc1nnc(-c2ccc3[nH]cc(-c4cncc(NCC5CC5)n4)c3c2)s1 [Example 207, 6-(5-(5-amino-1,3,4-thiadiazol-2-yl)-1H-indol-3-yl)-N-(cyclopropylmethyl)-2-pyrazinamine] | 37.4 nM | 1090 nM | – | – | –
24 | 13.2 nM | – | 53.7 nM | 24.5 nM | CC(Oc1cncc(-c2c[nH]c3ccc(-c4nnc(N)s4)cc23)n1)C(F)(F)F (stereo not drawn) [Example 211, 5-(3-(6-(2,2,2-trifluoro-1-methylethoxy)-2-pyrazinyl)-1H-indol-5-yl)-1,3,4-thiadiazol-2-amine] | 192 nM | 2800 nM | – | – | –
25 | 14.9 nM | – | 30.2 nM | 38.3 nM | COc1cncc(-c2c[nH]c3ccc(-c4nnc(N)s4)cc23)n1 [Example 212, 5-(3-(6-methoxy-2-pyrazinyl)-1H-indol-5-yl)-1,3,4-thiadiazol-2-amine] | 177 nM | > 31600 nM | – | – | –

Row | SMILES | IC50 [1] | IC50 [3] | IC50 [4] | IC50 [3, 7] | IC50 ([2]; read-out: U2OS Pim1_Cell_IC50) | IC50 ([5]; U2OS cells, Pim-2 transfected) | IC50 [2, 6] | IC50 ([3]; read-out: Pim_1_IC50) | IC50 ([5]; U2OS)
26 | CC(C)Oc1cncc(-c2c[nH]c3ccc(-c4nnc(N)s4)cc23)n1 [Example 159, 5-(3-(6-(1-methylethoxy)-2-pyrazinyl)-1H-indol-5-yl)-1,3,4-thiadiazol-2-amine] | 3 nM | – | 16.6 nM | – | – | 2220 nM | 91.9 nM | 8.2 nM | –
27 | Nc1nnc(-c2ccc3[nH]cc(-c4cccc(N5CCCC5=O)n4)c3c2)s1 [Example 166, 1-(6-(5-(5-amino-1,3,4-thiadiazol-2-yl)-1H-indol-3-yl)-2-pyridinyl)-2-pyrrolidinone] | 5.33 nM | – | 38.3 nM | 18.2 nM | > 31600 nM | > 31600 nM | – | – | –
